Assay results: PubChem BioAssay AID1996
Values after ≈ are worked out from the molar mass of the structure shown.

Conditions: buffer; pH 7.4; 200.0 µM

| SMILES | solubility kinetic [µg/mL] |
| --- | --- |
| COc1ccc(Nc2nc(C)nc3c2oc2ccccc23)c(OC)c1 | < 0.2 |
| O=c1[nH]cnc2c1C(c1ccc(Cl)cc1)c1c(nc[nH]c1=O)O2 | 43.5 (≈ 132 µM) |
| CN(C)c1ccc(C(=O)N=c2sccn2C)cc1[N+](=O)[O-] | 1.4 (≈ 4.57 µM) |
| CCC1CCC(N2CCN(c3cccc(OC)c3)CC2)CC1 (stereo unspecified) | 32.6 (≈ 108 µM) |
| O=C(NCCNC(=O)c1ccccn1)c1ccccc1 | 36 (≈ 134 µM) |
| O=C1CCCN1CCCNc1ncccc1[N+](=O)[O-] | > 39.6 |
| CC(=O)c1ccc(N2CCN(C3CCC(C(C)(C)C)CC3)CC2)cc1 (stereo unspecified) | 0.8 (≈ 2.34 µM) |
| COc1ccc(C(=O)O/N=C(/c2cccs2)C(C)(C)C)cc1 | 2.4 (≈ 7.56 µM) |
| Cc1cc2nsnc2c(S(=O)(=O)N2CCN(C)CC2)c1C | 47.9 (≈ 147 µM) |
| COCCNC(=O)c1ccc(-c2csc(C)n2)cc1 | > 41.5 |
| Cc1ccc(C(=O)OCC(=O)NC(C)C2CC3CCC2C3)cc1N (stereo unspecified) | > 49.6 |
| COc1ccc(CC(=O)OCC(=O)NC2CCCC(C)C2C)cc1OC (stereo unspecified) | > 54.5 |
| Cl.O=C(/C=C/c1ccco1)OCC1CCCN2CCCCC12 (stereo unspecified) | > 48.9 |
| CCOC(=O)CCSc1n[nH]c(=S)s1 | > 37.6 |
| O=C(O)c1ccc(Cl)c(S(=O)(=O)N2CCCC2)c1 | > 43.5 |
| C=CCN1C(=S)N[C@@H]2CS(=O)(=O)C[C@@H]21 | > 34.8 |
| CN(CC(=O)N1CCc2ccccc2C1)c1ccccc1 | > 42.1 |
| Cc1ccc(C(C)C)c(Oc2cnccn2)c1 | 4.3 (≈ 18.8 µM) |
| O=C(N/N=C/c1ccc([N+](=O)[O-])o1)C1CCCC1 | > 37.7 |
| CN(C)CCOC(c1ccc(Cl)cc1)c1ccccn1.O=C(O)/C=C/C(=O)O (stereo unspecified) | > 61 |
| Cc1[nH]c2ccccc2c1CCNC(=O)c1ccc2nccnc2c1 | 41.1 (≈ 124 µM) |

Now from value to compound:

| solubility kinetic [µg/mL] | SMILES |
| --- | --- |
| 3.1 (≈ 11.4 µM) | COc1ccc(C)cc1NCc1ccc([N+](=O)[O-])cc1 |
| 46.9 (≈ 144 µM) | COc1cccc(OC)c1C(=O)Nc1ccc(N2CCCC2)cc1 |
| > 51.1 | COc1ccc2c(CC(=O)NNC(=O)c3ccc(O)cc3)coc2c1 |
| > 49.8 | COC(=O)CNC(=O)COC(=O)c1cc(SC)ccc1Cl |
| 12.6 (≈ 36.5 µM) | CN1CCN(c2ccc(CNS(=O)(=O)c3ccccc3)cc2)CC1 |
| 7.8 (≈ 26.7 µM) | CC1=CC(C)(C)N(C(=O)Nc2ccccc2)c2ccccc21 |
| > 52.1 | Cc1ccc(O)c(NC(=O)c2ccccc2-c2ccccc2C(=O)O)c1 |
| 40.7 (≈ 113 µM) | COc1ccc(N2CCN(C(=O)c3ccccc3F)CC2)c([N+](=O)[O-])c1 |
| > 45.7 | COc1ccc(CC(=O)N/N=C/c2cccs2)cc1OC |
| 7.2 (≈ 21.2 µM) | COc1cc([N+](=O)[O-])ccc1N1C(=O)C2C3C=CC(C4CC34)C2C1=O (stereo unspecified) |
| > 49.6 | CCOc1ccc(NC(=O)[C@@H](NC(=O)c2ccco2)C(C)C)cc1 |
| 0.3 (≈ 0.916 µM) | COc1ccccc1-n1cc(-c2ccc([N+](=O)[O-])cc2)[nH]c1=S |
| > 52.9 | CC1CCCCN1S(=O)(=O)c1ccc(C(=O)N2CCOCC2)cc1 (stereo unspecified) |
| > 48.2 | Cc1cccc(Nc2nnc(SC3CCOC3=O)s2)c1C (stereo unspecified) |
| > 45.2 | O=C1CN(C(=S)Nc2ccc(OC(F)F)cc2)CCN1 |
| > 52.1 | CC(C(=O)N1CCN=C1c1ccccc1)N1C(=O)c2ccccc2C1=O (stereo unspecified) |
| 41.3 (≈ 123 µM) | CCCC(=O)Nc1cc(C)cn(Cc2c(F)cccc2Cl)c1=O |
| > 42.8 | CCCCN(C(=O)c1ccco1)C1CCS(=O)(=O)C1 (stereo unspecified) |
| > 43.5 | COc1cccc(Nc2c([N+](=O)[O-])cncc2[N+](=O)[O-])c1 |
| < 0.6 | O=S(=O)(c1ccccc1F)N1CCc2ccccc2C1 |
| 1.4 (≈ 3.76 µM) | COc1ccc(Nc2nc(N3CCOCC3)nc(N3CCOCC3)n2)cc1 |
| < 0.3 | COc1ccc2[nH]c(C(=O)Nc3ccccc3Cl)cc2c1 |
| 38.6 (≈ 122 µM) | CC(NC(=O)CN(C)Cc1cccc(Cl)c1)c1ccccc1 (stereo unspecified) |
| > 50.5 | CSc1cccc(NC(=O)CNS(=O)(=O)c2ccccc2)c1 |
| 20.6 (≈ 61.2 µM) | C1CN(c2nc(N3CCOCC3)nc(N3CCOCC3)n2)CCO1 |
